Where a name gives a salt, the structure may show the parent alone.
Assays:
HepG2 cells = assay: in vitro glucose consumption in HepG2 cells (glucose oxidase method); format: cell-based; conditions: for Glucose consumption / Glucose consumption increased: HepG2 cells; for Glucose consumption: 24 h, x ± s, n = 8; for Glucose consumption increased: versus blank control group
Method: HepG2 cells with good growth state were selected, and were digested with trypsinase and EDTA (ethylene diamine tetraacetic acid) digestive juice. After digestion was complete, the resulting mixture was formulated with DMEM (Dulbecco's Modified Eagle Medium) having 10% Fetal bovine serum (FBS) into single cell suspension. The cells were seeded into 96 well plates, with 1*10^4 cells per well. Once the cell confluence reached 50%, the medium was changed to high glucose DMEM without serum, starvation cultured for 12 h. The cell supernatant was pipetted, and fresh high glucose DMEM with or without medications was added. The cells were divided into a blank control group, a 20-hydroxy-β-ecdysterone group, and a compound of formula I group. After culturing for 24 h, each group was tested for the change of glucose in the medium by using the glucose oxidase method.

normal mice = assay: level of blood glucose in normal mice; format: in vivo, Kunming mouse; conditions: for Blood glucose 3 d after dosing: 5th administration; for Blood glucose 3 d after dosing / Blood glucose 10 d after dosing: fasting 2 h, X ± S; for Blood glucose 10 d after dosing: 19th administration; for effects in lowering glucose in normal mice: 5 mg/kg
Method: 40 male mice with a body weight of 21±1.8 g (Kunming mouse: SPF grade, male, provided by laboratory animal centre of Sichuan Academy of Chinese Medicine Sciences) were grouped into 4 groups randomly, which are control group, 5 mg/kg of the compound of formula I group, 5 mg/kg of the sodium salt of the compound of formula I group, and 25 mg/kg of Glibenclamide (manufactured by Tianjin Pacific Chemical & Pharmaceutical Co., LTD) group. For the control group, distilled water was given, while for other groups, corresponding medicaments were given. The medicament was intragastrically administered in 0.2 ml/10 g of administration volume twice daily. The administration was continued for 19 times. On the 5th time and 19th time and after thoroughly fasting for 2 h, the blood glucose value for each mouse was tested by a Blood Glucose Meter, and the results were recorded as follows: […]

PI3K and GLUT-4 proteins = conditions: 1×10^−5M, P<0.05; cited from earlier work
InsR protein = conditions: 1×10^−5 mol/L; cited from earlier work
β-TC3 cells = conditions: cited from earlier work
[1] = dissolution experiment (solubility in water); format: physicochemical; conditions: for amount of water necessarily for completely dissolving this product (1 g): 1 g of product; for solubility in water relative to 20-hydroxy-β-ecdysterone: fold of that of 20-hydroxy-β-ecdysterone
[2] = 25 mg/kg intragastrically twice daily, *P<0.05 vs control
[3] = 5 mg/kg intragastrically twice daily
[4] = 5 mg/kg intragastrically twice daily, *P<0.05 vs control

SMILES	Glucose consumption (HepG2 cells; 2 × 10^−7 M)	Glucose consumption increased (HepG2 cells; 2 × 10^−7 M)	Glucose consumption (HepG2 cells; 2 × 10^−8 M)	Glucose consumption increased (HepG2 cells; 2 × 10^−8 M)	Glucose consumption (HepG2 cells; 2 × 10^−9 M)	effects in lowering glucose in normal mice (normal mice)	Blood glucose 3 d after dosing (normal mice; [3])	Blood glucose 10 d after dosing (normal mice; [4])	amount of water necessarily for completely dissolving this product (1 g) [1]	solubility in water relative to 20-hydroxy-β-ecdysterone [1]	further results
CC(C)(O)CC[C@@H](O)[C@](C)(O)[C@H]1CC[C@@]2(O)C3=CC(=O)[C@@H]4C[C@@H](O)[C@@H](O)C[C@]4(C)[C@H]3CC[C@]12C [20-hydroxy-β-ecdysterone, reference compound]	1.45 ± 0.28 mM	0.13 mM	1.38 ± 0.11 mM	0.06 mM	1.30 ± 0.23 mM	–	–	–	–	–	increase of the glucose consumption in HepG2 cells (HepG2 cells; concentration 2×10^−7˜2×10^−8 M): below 15%; effect for lowering glucose in HepG2 cells (HepG2 cells; concentration 2×10^−9 M): no effect
COc1ccc(Cl)cc1C(=O)NCCc1ccc(S(=O)(=O)NC(=O)NC2CCCCC2)cc1 [Glibenclamide, reference compound]	–	–	–	–	–	–	–	–	–	–	Blood glucose 3 d after dosing (normal mice; [2]): 9.3 ± 0.9* mmol/L; Blood glucose 10 d after dosing (normal mice; [2]): 9.9 ± 0.9* mmol/L
CC(C)(O)CC[C@@H](O)[C@](C)(O)[C@H]1CC[C@@]2(O)C3=CC(=O)[C@@H]4C[C@@H](O)[C@@H](O)C[C@]4(C)[C@H]3CC[C@]12C [ecdysterone]	–	–	–	–	–	–	–	–	–	–	expression of PI3K and GLUT-4 proteins in insulin resistant HepG2 cells (PI3K and GLUT-4 proteins): increases; expression of InsR protein in IR HepG2 cells (InsR protein): significantly increases; stimulating insulin secretion of β-TC3 cells (β-TC3 cells): does not have the action of stimulating insulin secretion
CC(C)(O)CC[C@H]1OP(=O)(O)O[C@]1(C)[C@H]1CC[C@@]2(O)C3=CC(=O)[C@@H]4C[C@@H](O)[C@@H](O)C[C@]4(C)C3CC[C@]12C (some centres unmarked) [sodium salt of the compound of formula I]	–	–	–	–	–	have the effects in lowering glucose	10.2 ± 1.9 mmol/L	9.8 ± 1.4* mmol/L	2.5 mL	50 fold	–
CC(C)(O)CC[C@H]1OP(=O)(O)O[C@]1(C)[C@H]1CC[C@@]2(O)C3=CC(=O)[C@@H]4C[C@@H](O)[C@@H](O)C[C@]4(C)C3CC[C@]12C (some centres unmarked) [the compound of formula I]	6.96 ± 0.23 mM	5.64 mM	6.51 ± 0.12 mM	5.19 mM	6.46 ± 0.19 mM	have the effects in lowering glucose	10.4 ± 1.7 mmol/L	9.1 ± 2.3* mmol/L	12 mL	10 fold	Glucose consumption increased (HepG2 cells; 2 × 10^−9 M): 5.14 mM; increase of the glucose consumption in HepG2 cells (HepG2 cells; concentration range 2×10^−7˜2×10^−9 M): above 500%

— patent US8822441B2, “Ecdysterone synthesis derivative, preparation method and use thereof” (priority 2010, dated 2014)
